Measured values as given in PubChem BioAssay (NCI).
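Tested at 5 concentrations; 48 h exposure; 96-well plates; endpoints linearly interpolated, else capped at highest concentration. The concentration for full growth arrest is given as TGI.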

Assays:
Assay in all cases: NCI anticancer screen, dose series, 48 h
786-0 renal = test system: 786-0 renal
A549 NSCLC = test system: A549 NSCLC
HCT-15 colon = test system: HCT-15 colon
HS 578T breast = test system: HS 578T breast
IGROV1 ovarian = test system: IGROV1 ovarian
K-562 leukemia = test system: K-562 leukemia
M14 melanoma = test system: M14 melanoma
MOLT-4 leukemia = test system: MOLT-4 leukemia
OVCAR-8 ovarian = test system: OVCAR-8 ovarian
SK-OV-3 ovarian = test system: SK-OV-3 ovarian
SNB-19 CNS = test system: SNB-19 CNS
TK-10 renal = test system: TK-10 renal

Row | Compound | TGI (786-0 renal) [µM] | TGI (A549 NSCLC) [µM] | TGI (HCT-15 colon) [µM] | TGI (HS 578T breast) [µM] | TGI (IGROV1 ovarian) [µM] | TGI (K-562 leukemia) [µM] | TGI (M14 melanoma) [µM] | TGI (MOLT-4 leukemia) [µM] | TGI (OVCAR-8 ovarian) [µM] | TGI (SK-OV-3 ovarian) [µM] | TGI (SNB-19 CNS) [µM] | TGI (TK-10 renal) [µM]
1 | N[C@H](C(=O)O)[C@@H]1CC(Br)=NO1 | > 100 | > 100 | > 100 | > 100 | > 100 | > 100 | > 100 | > 100 | > 100 | > 100 | > 100 | > 100
2 | Nc1ccc2c(c1)nc1n2C(c2c(F)cccc2F)SC1 (stereo not drawn) | > 100 | > 100 | > 100 | > 100 | > 100 | > 100 | > 100 | > 100 | > 100 | > 100 | > 100 | > 100
3 | N#Cc1c2c(c(N)oc1=O)C(c1ccccc1)CC(=O)N2 (stereo not drawn) | > 100 | > 100 | > 100 | > 100 | > 100 | > 100 | > 100 | > 100 | > 100 | > 100 | > 100 | > 100
4 | COc1ccc(OC)c(CNc2ccc(C(=O)O)cc2)c1 | > 100 | > 100 | > 100 | > 100 | > 100 | > 100 | > 100 | > 100 | > 100 | > 100 | > 100 | > 100
5 | O=c1[nH]nc(Cc2ccccc2)n1C1CCCC1 | > 100 | > 100 | > 100 | > 100 | > 100 | > 100 | > 100 | > 100 | > 100 | > 100 | > 100 | > 100
6 | O=[N+]([O-])c1ccc(C(=S)Nc2ccccc2)o1 | 6.19 | 22.4 | 7.07 | 32.7 | 17.8 | 6.28 | 14 | 11.7 | 10.6 | 24 | 17.3 | 14.1
7 | c1cc2nnc1SCCCSc1ccc(nn1)SCCCS2 | > 100 | > 100 | > 100 | 99.2 | > 81.3 | > 100 | > 57.6 | > 100 | > 100 | 92.3 | > 93.2 | 98.8
8 | Cc1cn(CCCCC2=NCCCN2)c(=O)[nH]c1=O | > 30.1 | > 54.4 | > 47.2 | > 60.5 | > 33.8 | > 37.2 | > 32.4 | > 37.1 | > 28.2 | > 40.7 | > 66.2 | > 36.6
9 | COc1ccc(/C(Br)=C2\OC(=O)c3ccccc32)cc1 | > 10 | > 10 | > 10 | > 10 | > 10 | > 10 | > 10 | > 10 | > 10 | > 10 | > 10 | > 10
10 | CC1CN=C(N(Cc2ccccc2)C(=O)Nc2ccc(Cl)c(Cl)c2)S1 (stereo not drawn) | > 100 | > 100 | > 100 | > 100 | > 100 | > 100 | 48.8 | > 10 | > 100 | > 100 | > 100 | > 100
11 | Oc1[nH]c2ccccc2c1N=NC(=S)Nc1ccccc1Cl | 20.8 | 23.8 | > 100 | 56.1 | 29.8 | 81.4 | 14.9 | 4.95 | 17.9 | 35.5 | > 100 | 10.3
12 | CC1(C)OC(=S)N(c2ccccc2)C12C=Cc1ccccc1O2 (stereo not drawn) | > 100 | > 100 | > 100 | > 100 | > 100 | > 100 | > 100 | 76.5 | > 100 | 73 | > 100 | > 100
13 | CCOC(=O)c1sc2nc(SC)nc3c2c1NCN3c1ccc2c(c1)OCO2 | 15 | 25.4 | > 100 | 8.07 | > 100 | > 100 | 71.2 | 78.8 | 20.1 | 24.2 | 31.2 | 43.7
14 | CCCCc1ccc(-n2sc3ncc(C)cc3c2=O)cc1 | > 100 | 78.9 | 59.1 | > 100 | > 100 | > 100 | 29.4 | > 100 | 51.1 | > 100 | > 100 | > 100
